In PubChem BioAssay (NCI):
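Cells were grown in 96-well plates and exposed to each compound for 48 hours at five concentrations; endpoints were interpolated linearly between bracketing concentrations, or set to the highest concentration if not reached. GI50 marks 50% less growth. TGI is the concentration that stops growth completely.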

Tests used:
Experiment in all cases: inhibition of tumour cell growth, NCI panel, 48 h
[1] = test system: 786-0 renal
[2] = test system: ACHN renal
[3] = test system: CCRF-CEM leukemia
[4] = test system: HCC-2998 colon
[5] = test system: LOX IMVI melanoma
[6] = test system: NCI-H460 lung
[7] = test system: NCI-H522 lung
[8] = test system: UACC-62 melanoma

SMILES	GI50 [1] [µM]	TGI [1] [µM]	GI50 [2] [µM]	TGI [2] [µM]	GI50 [3] [µM]	TGI [3] [µM]	GI50 [4] [µM]	TGI [4] [µM]	GI50 [5] [µM]	TGI [5] [µM]	GI50 [6] [µM]	TGI [6] [µM]	GI50 [7] [µM]	TGI [7] [µM]	GI50 [8] [µM]	TGI [8] [µM]
COc1cc(/C=C/C(=O)N2CCN(C(=O)c3cc(OC)c(OC)c(OC)c3)CC2)ccc1OCCCOc1cc2c(cc1OC)C(=O)N1CCC[C@H]1C=N2	0.491	10.6	2.64	> 35.3	0.0832	> 100	0.296	0.838	0.215	0.726	0.333	10.3	0.213	3.25	0.162	0.338
O=C(Nc1ccccc1)c1cc(S(=O)(=O)Nc2nc3ccccc3o2)c(SCc2ccccc2)cc1Cl	17.3	38.2	18.2	37	11.4	28.5	18.7	34.8	20	40.3	20.8	77	25.2	65	17.1	31.6
Cn1c(=O)c(Oc2ccc(F)cc2F)cc2cnc(NC3CCS(=O)(=O)CC3)nc21	> 25	> 25	> 14.3	> 25	> 25	> 25	> 25	> 25	> 25	> 25	> 25	> 25	> 14.3	> 25	> 25	> 25
COc1ccc(C2C=C(c3ccc4c(c3)OCO4)Oc3c2c(=O)oc2ccccc32)cc1OC (centres undefined)	–	> 100	–	> 100	–	> 100	–	2.26	–	> 100	–	> 100	–	> 66.3	–	> 100
CCCCCCCCCCCCCCCCC(=O)O.CCCCCCCCCCCCCCCCCC(=O)O.CCCCCCCCCCCCCCCCCC(=O)O.CCCCCCCCCCCCCCCCCC(=O)O.CCCCCCCCCCCCCCCCCC(=O)O.CO[CH-]OC12COC1CC(O)C1(C)C(O)C(OC(C)O)C3=C(C)C(OC(=O)C(O)C([NH-])c4ccccc4)CC(O)(C(OC(=O)c4ccccc4)C21)C3(C)C.[Cu+].[Zn].[Zn].[Zn].[Zn].[Zn] (centres undefined)	0.0595	> 10.9	0.272	> 25	0.0095	> 17.7	0.00647	–	0.00381	7.05	0.00441	3.66	0.0103	6.07	0.0118	5.47
CN1C/C=C/CCOc2cccc(c2)-c2ccnc(n2)Nc2cccc(c2)C1	0.0317	0.203	0.0307	1.45	0.0386	–	0.048	0.623	0.0248	1.12	0.0347	0.352	0.0522	0.233	0.0328	0.128
CS(=O)(=O)CC(=O)c1ccccc1	–	> 100	–	> 100	–	> 100	–	> 100	–	> 100	–	> 100	–	> 100	–	> 100
CC(C)(C)CC(N)=O	–	> 100	–	> 100	–	> 100	–	> 100	–	> 100	–	> 100	–	> 100	–	> 100
OCc1ccc(N2CCc3ccccc3C2)cc1Cl	16.6	51.7	18.4	> 78.6	27.3	99.6	1.15	7.11	31.6	> 100	< 0.0179	0.174	17.2	61.1	< 0.01	0.144
CC(=O)N1N=C2/C(=C/c3ccc(Cl)cc3)CC(C)CC2C1c1ccc(Cl)cc1 (centres undefined)	18.2	39.1	33.2	> 100	19.7	62.6	19.1	38.1	18.1	34.6	18.5	41.8	17.1	56.8	21.1	52.2
CCCCCCCCC(=O)OCC(CS[As](C)C)OC(=O)CCCCCCCC (centres undefined)	1.16	> 40.1	0.602	3.62	0.396	11.5	0.356	1.83	1.09	5.7	21.7	58.3	1.11	–	0.904	15
Cc1cc(C(C)(C)C)cc(CNC2CCCCC2)c1O	–	30	–	31	–	91	–	10.4	–	29.5	–	28.4	–	25.2	–	29.6
NC(N)=N/N=C/c1ccc(-c2ccc(-c3cc(Cl)cc(Cl)c3)s2)cc1	1.74	3.66	1.75	3.29	1.65	4.62	1.94	3.83	1.65	3.42	1.7	3.46	1.85	4.45	1.85	3.72
O=C1OCC2=C1C(c1ccc(Cl)c(Cl)c1)c1cc3c(cc1N2CCO)CCC3 (centres undefined)	0.242	10.2	0.371	12.2	0.257	13.6	0.418	4.29	0.303	10.3	0.186	6.03	0.11	0.371	0.215	8.6
COc1ccc(/C=C2\C=C(c3ccccc3)N(CCc3ccccc3)C2=O)cc1OC	2.14	5.85	3.53	14	35.9	> 100	12.9	64.1	5.94	19	7.34	30.7	9.8	36	6.01	40.9
Cc1cc(N(CCCl)CCCl)ccc1C=Nc1ccc2ccccc2c1	12.7	> 100	4.51	> 100	4.85	> 100	27.9	> 100	22.1	> 100	0.485	> 100	20.1	> 66.5	2.45	28.3
Clc1ccc(-c2cc(-c3ccccc3)nc(NCCNc3ccnc4cc(Cl)ccc34)n2)cc1	1.67	3.41	1.72	3.24	2.14	5.56	1.85	3.56	1.89	3.7	1.95	3.85	1.81	3.78	1.84	3.37
COc1cc(C(=O)Nc2cc(OC)c3ccn(C)c3c2)cc2c1C[C@]1(C)CC[C@@H](O)C(C)(C)[C@H]1O2	0.0878	5.22	0.944	> 100	0.0927	> 100	3.74	49.8	1.01	10.1	0.586	> 100	1.44	7.4	0.257	1.31
Clc1ccc(OCc2nnc3n2N=C(c2ccc(Cl)cc2Cl)CS3)cc1	32.7	> 100	20.4	49.3	21.1	68.1	16.6	35	16.2	30.9	17.2	51	19.2	38.7	14	31.4
O=C(c1ccco1)c1c(C(F)(F)F)n([O-])c2ccc(Cl)cc2[n+]1=O	0.043	0.115	0.137	0.482	–	0.838	0.101	0.216	0.0951	0.287	0.547	–	1.4	–	0.574	1.99
Cn1cc(C2=C(c3cn(C)c4ccccc34)C(=O)NC2=O)c2ccccc21	1.52	> 25	2.25	> 25	0.952	> 25	> 25	> 25	1.8	> 25	1.12	> 25	0.433	2.52	2.24	> 25
O=C(Nc1ccc(/C=C/c2ccc(NC(=O)c3cc(S(=O)(=O)O)c4cccnc4c3O)cc2S(=O)(=O)O)c(S(=O)(=O)O)c1)c1cc(S(=O)(=O)O)c2cccnc2c1O	4.86	> 54.5	3.37	> 15.8	3.15	> 29.1	97.6	> 100	3.07	> 28	22.9	> 76.9	15.3	47	2.5	37.6
COc1cc2c(cc1Nc1nc(Nc3cccc(F)c3C(N)=O)c3cc[nH]c3n1)N(C(=O)CN1CCN(C(C)C)CC1)CC2	3.98	7.53	4.59	10.2	5.35	14.2	3.08	6.31	3.49	7.03	3.36	7	3.89	7.69	3.9	7.74
COc1cc(-c2cc(-c3cc(OC)c(OC)c(OC)c3)nc3nc(N)[nH]c(=O)c23)ccc1Oc1ccnc2cc(Cl)ccc12	3.86	> 100	2.89	82.7	2.66	> 100	3.14	11.3	1.27	19.8	3.45	37.7	2.13	15.5	3.55	25.2
COc1ccc(C2=NN(C(=O)c3cc(OC)c(OC)c(OC)c3)C(c3ccc(N(C)C)cc3)C2)cc1 (centres undefined)	0.295	–	0.622	> 100	1.8	> 27.1	0.357	2.69	0.549	> 100	0.397	–	0.352	–	0.496	> 100
O=c1oc2ccc(Br)cc2c(=O)n1-c1ccc(I)cc1F	1.96	6.16	0.401	6.04	0.625	6.82	2.2	8.78	0.393	2.94	0.367	5.57	0.277	1.65	0.264	0.886
O=C(Nc1n[nH]c2nnc(-c3cccnc3)cc12)C1CC1	3.65	> 25	3.88	> 25	7.05	> 25	8.95	> 25	6.99	> 25	8.13	> 25	> 5.13	> 25	7.37	> 25
Cn1c(/C=C/[N+](=O)[O-])cc2ccccc21	2.15	4.08	3.42	13.2	16.9	> 100	1.84	3.36	1.67	3.44	3.77	20.9	2.22	7.43	11.4	31
COc1cc(C(=O)N/N=C/c2ccc(N(C)C)cc2)cc(OC)c1OC	0.66	> 100	1.28	> 100	0.344	> 100	0.551	19.1	0.736	> 100	0.376	31.7	0.161	0.937	0.417	> 100
COc1ccc(Nc2cc(C)nc(NCCCNc3ccnc4cc(Cl)ccc34)n2)cc1	1.67	3.26	1.61	3.16	1.31	6.49	1.65	3.45	1.4	2.85	1.78	3.8	2.04	3.65	1.81	3.44
